Measurements: US6875758B2, “Method of treating hyperlipidemic and hyperglycemic conditions in mammals using pregnadienols and pregnadienones” (Council of Scientific & Industrial Research, priority 1999, dated 2005)

Assays:
[1] = tested on: Triton treated rats; assay: Cholesterol lowering in Triton treated rats; assay type: in vivo, Charles Foster rats
Excerpt: The primary hypolipidemic effect of these compounds was established in triton induced hyperlipidemia in Charles Foster rats. […] The cholesterol lowering effect of some representative compounds of pregrenadienols and pregrenadienones as compared to clofibrate and gugulsterone in triton treated Charles Foster rats is described in Table-2.

[2] = tested on: glucose loaded rats; assay: Hypoglycemic activity in glucose loaded rats; assay type: in vivo, albino rats (Charles Foster strain); conditions: for Blood Glucose Level: 100 mg/kg p.o. + glucose 2.0 g/kg; for % inhibition compared to control (blood glucose): 100 mg/kg
Protocol: The experiments were carried out with albino rats (Charles Foster strain) of either sex weighing 150-160 g. They were fed on laboratory diet prepared by M/s Lipton India Ltd. and maintained under 12 hr. light/dark cycle at 25±2° C.
The animals were divided into eight groups, each of six rats; group I was given 1% gum acacia (0.1 ml/100 g body weight) intragastrically (p.o.) and the group II were given 3β-hydroxypregna-5,16-dien-20-one (2) in 1% gum acacia. Animals of group III were given the standard antidiabetic drug, tolbutamide in the similar fashion. 2.0 g/kg glucose was given p.o. to all the rats along with the vehicle/Compound/Standard antidiabetic drug. Blood samples were taken from retroorbital plexus at periodic intervals. Glucose levels in the blood samples were measured by glucose oxidase method [Bergmeyer and Benut, 1963 cited in “Methods of Enzymatic Analysis” ed. H. Bergmeyer, Verlag Chemie, GmBH, Weinheim, Beroster, pp123, Academic press, New York].

[3] = tested on: streptozotocin induced diabetic rats; assay: Hypoglycemic activity in streptozotocin induced hyperglycemic rats; assay type: in vivo; conditions: 100 mg/kg p.o.
Protocol: Hyperglycemia in rats was produced by streptozotocin treatment. The animals showing blood glucose levels between 250-350 mg/dl were selected. Blood samples were collected after treatment at intervals and blood glucose levels were estimated immediately.

[4] = tested on: Human serum LDL; assay: Cu2+ induced oxidation of low density lipoprotein (TBA reactive lipid peroxides); assay type: biochemical; conditions: for MDA (Exp.): 16 hr at 37° C., pH 7.4; for generation of LDL lipid peroxide (in words): tested concentrations
Protocol: Human serum LDL was oxidized with Cu^′2 in different concentrations of test compound in 0.05 mole PBS, pH 7.4 for 16 hr at 37° C. Thiobarbituric acid reactive lipid peroxides are measured by standard procedure. […] Cu^′2 induced oxidation in LDL lipids are mainly due to the free OH radical during incubation.

[5] = Hydroxy (OH) radical formation in nonenzymatic system (Fe2+, ascorbate, H2O2, deoxyribose); assay type: biochemical
[6] = tested on: cholesterol fed hyperlipidemic rats; assay: Lipid peroxidation in cholesterol fed hyperlipidemic rats; assay type: in vivo
[7] = tested on: isoproterneol induced myocardial necrosis in rat; assay: Isoproterneol induced myocardial necrosis in rats; assay type: in vivo; conditions: isoproterneol 85 mg/kg + drug 25 mg/kg p.o.
Excerpt: The underlying cause of myocardial infarction is believed to be the progressive deposition of lipids and fibrotic material into the arterial wall. These pregnadienols and pregnadienous also provided cardiac protection as assessed in isoproterneol induced myocardial necrosis in rat model, which produces myocardial infarction due to an increased blood pressure and heart rate.

[8] = Rattus norvegicus, ip, 50 mg/kg i.p., read-out: % Change S. Chol.

CC=C1C(OC(C)=O)C[C@H]2[C@@H]3CC=C4CC(OC(C)=O)CC[C@]4(C)[C@H]3CC[C@]12C (stereo partly drawn) [Compound 7, 5,17(20)-Dienpregna-3,16-diol-diacetate]
% Change S. Chol. ([1]; 50 mg/kg i.p.): −33%

CCCCNC(=O)NS(=O)(=O)c1ccc(C)cc1 [Tolbutamide, reference compound]
Maximum Blood Glucose Change ([2]; 100 mg/kg p.o. + glucose): −41.7% | Blood Glucose Level ([2]; 0 min): 38.15 ± 2.02 mg/dL | Blood Glucose Level ([2]; 30 min): 76.31 ± 6.29 mg/dL | Blood Glucose Level ([2]; 60 min): 27.26 ± 3.1 mg/dL | Blood Glucose Level ([2]; 90 min): 24.64 ± 1.92 mg/dL | Blood Glucose Level ([2]; 120 min): 23.07 ± 3.11 mg/dL | % inhibition compared to control (blood glucose) ([2]; 30 min): (35) % | % inhibition compared to control (blood glucose) ([2]; 60 min): (100) % | % inhibition compared to control (blood glucose) ([2]; 90 min): (100) % | % inhibition compared to control (blood glucose) ([2]; 120 min): (100) % | Blood Glucose Level ([3]; 0 hr): 292 ± 10 mg/dL | % lowering from zero hour value (blood glucose) ([3]; 1 hr): (25.3) % | % lowering from zero hour value (blood glucose) ([3]; 2 hr): (29.1) % | % lowering from zero hour value (blood glucose) ([3]; 3 hr): (30.8) % | % lowering from zero hour value (blood glucose) ([3]; 4 hr): (33.2) % | % lowering from zero hour value (blood glucose) ([3]; 5 hr): (37.3) % | % lowering from zero hour value (blood glucose) ([3]; 6 hr): (40.4) % | % lowering from zero hour value (blood glucose) ([3]; 7 hr): (34.2) % | % lowering from zero hour value (blood glucose) ([3]; 8 hr): (17.1) % | Blood Glucose Level ([3]; 24 hr): 332 ± 26 mg/dL

CC(O)C1=CCC2C3CC=C4CC(O)CC[C@]4(C)C3CC[C@]12C (stereo partly drawn) [Compound 6, 5,16-Dien-pregnane-3,20-diol]
change in vivo at 50 mg/kg [1, 8]: -10%

C/C=C1/C(O)CC2C3CC=C4CC(O)CC[C@]4(C)C3CC[C@]12C (stereo partly drawn) [Compound 8, 5,17(20)-Dienpregna-3,16-diol]
change in vivo at 50 mg/kg [1, 8]: -31%

CC(=O)O[C@H]1CC[C@@]2(C)C(=CC[C@H]3[C@@H]4CC[C@H](C(C)=O)[C@@]4(C)CC[C@@H]32)C1 [Compound 4, 3β-Aceoxypregna-5-en-20-one]
% Change S. Chol. ([1]; 100 mg/kg i.p.): −12%

CC(=O)C1=CCC2C3CCC4=CC(=O)CC[C@]4(C)C3CC[C@]12C (stereo partly drawn) [Compound 3, 4,16-Dienpregna-3,20-dione]
change in vivo at 50 mg/kg [1, 8]: -13%

C/C=C1/C(=O)CC2C3CCC4=CC(=O)CC[C@]4(C)C3CC[C@]12C (stereo partly drawn) [Compound 9, Gugulsterone, reference compound]
change in vivo at 50 mg/kg [1, 8]: -44%

CC(=O)O[C@H]1CC[C@@]2(C)C(=CC[C@@H]3[C@@H]2CC[C@]2(C)C(C(C)=O)=CC[C@@H]32)C1 [Compound 1, 3β-Acetoxypregna-5,16-dien-20-one]
change in vivo at 50 mg/kg [1, 8]: -43%

CC(=O)[C@H]1CC[C@H]2[C@@H]3CC=C4C[C@@H](O)CC[C@]4(C)[C@H]3CC[C@]12C [Compound 5, 3β-Hydroxypregna-5-en-20-one]
change in vivo at 100 mg/kg ([1]; Rattus norvegicus, ip, 100 mg/kg i.p., read-out: % Change S. Chol.): -9%

Cc1c(C)c2c(c(C)c1O)CC[C@@](C)(CCC[C@H](C)CCC[C@H](C)CCCC(C)C)O2 [α-Tocopherol]
% inhibition of LDL oxidation ([4]; 0.25 μmol/ml): (3) % | MDA (Exp.) ([4]; 0.25 μmol/ml): 44.7 ± 4.5 n mol MDA/mg protein | % inhibition of LDL oxidation ([4]; 0.5 μmol/ml): (13) % | MDA (Exp.) ([4]; 0.5 μmol/ml): 41.6 ± 4.0 n mol MDA/mg protein | MDA (Exp.) ([4]; 1.0 μmol/ml): 35.0 ± 3.8 n mol MDA/mg protein | % inhibition of LDL oxidation ([4]; 2.0 μmol/ml): (51) % | MDA (Exp.) ([4]; 2.0 μmol/ml): 24.3 ± 2.0 n mol MDA/mg protein | generation of LDL lipid peroxide (in words) [4]: inhibit the generation of LDL lipid peroxide in concentration dependent manner | % inhibition of OH radical formation ([5]; 1 μmol/ml): (23) % | OH radical formation ([5]; 1 μmol/ml): 60.4 ± 7.0 nmol MDA/hr | % inhibition of OH radical formation ([5]; 2 μmol/ml): (42) % | OH radical formation ([5]; 2 μmol/ml): 45.2 ± 3.3 nmol MDA/hr | % inhibition of OH radical formation ([5]; 3 μmol/ml): (59) % | OH radical formation ([5]; 3 μmol/ml): 32.4 ± 3.5 nmol MDA/hr | % inhibition of OH radical formation ([5]; 4 μmol/ml): (65) % | OH radical formation ([5]; 4 μmol/ml): 27.1 ± 2.8 nmol MDA/hr | % inhibition of OH radical formation ([5]; 5 μmol/ml): (73) % | OH radical formation ([5]; 5 μmol/ml): 20.9 ± 2.0 nmol MDA/hr

Cc1ccc(C)c(OCCCC(C)(C)C(=O)O)c1 [Gemfibrozil, reference compound]
HDL lipid peroxides ([6]; cholesterol + drug 25 mg/kg): 134 ± 13 n mol MDA/dl | HDL lipid peroxides % reversal as compared with cholesterol fed rats ([6]; cholesterol + drug 25 mg/kg): (−3) % | LDL lipid peroxides ([6]; cholesterol + drug 25 mg/kg): 568 ± 62 n mol MDA/dl | LDL lipid peroxides % reversal as compared with cholesterol fed rats ([6]; cholesterol + drug 25 mg/kg): (−6) % | Liver lipid peroxides ([6]; cholesterol + drug 25 mg/kg): 253 ± 26 n mol MDA/g | Liver lipid peroxides % reversal as compared with cholesterol fed rats ([6]; cholesterol + drug 25 mg/kg): (−8) % | Serum lipid peroxides ([6]; cholesterol + drug 25 mg/kg): 1161 ± 74 n mol MDA/dl | Serum lipid peroxides % reversal as compared with cholesterol fed rats ([6]; cholesterol + drug 25 mg/kg): (−5) % | VLDL lipid peroxides ([6]; cholesterol + drug 25 mg/kg): 346 ± 10 n mol MDA/dl | VLDL lipid peroxides % reversal as compared with cholesterol fed rats ([6]; cholesterol + drug 25 mg/kg): (−9) % | lipid peroxide levels in serum VLDL, LDL and liver (in words) ([6]; cholesterol fed animals, simultaneous treatment): failed to protect | Heart Ca. - ATPase % Protection [7]: 30.2% | Heart Glycogen % Protection [7]: 32.1% | Heart Lipid peroxide % Protection [7]: 69.8% | Heart Phospholipase % Protection [7]: 28.2% | Serum Alkaline Phosphatase % Protection [7]: 41.2% | Serum CPK % Protection [7]: 33.9% | Serum GOT % Protection [7]: 24.9% | Serum GPT % Protection [7]: 33.4% | MDA (Exp.) ([4]; 2.5 μmol/ml): 53.0 ± 6.0 n mol MDA/mg protein | % inhibition of LDL oxidation ([4]; 5.0 μmol/ml): (5) % | MDA (Exp.) ([4]; 5.0 μmol/ml): 48.8 ± 6.7 n mol MDA/mg protein | MDA (Exp.) ([4]; 10.0 μmol/ml): 43.8 ± 4.9 n mol MDA/mg protein | % inhibition of LDL oxidation ([4]; 20 μmol/ml): (16) % | MDA (Exp.) ([4]; 20 μmol/ml): 41.4 ± 5.0 n mol MDA/mg protein | generation of LDL lipid peroxide (in words) [4]: did not inhibit | % inhibition of OH radical formation ([5]; 5 μmol/ml): (4) % | OH radical formation ([5]; 5 μmol/ml): 79.9 ± 6.8 nmol MDA/hr | % inhibition of OH radical formation ([5]; 10 μmol/ml): (5) % | OH radical formation ([5]; 10 μmol/ml): 78.5 ± 8.0 nmol MDA/hr | % inhibition of OH radical formation ([5]; 20 μmol/ml): (8) % | OH radical formation ([5]; 20 μmol/ml): 76.8 ± 7.4 nmol MDA/hr | % inhibition of OH radical formation ([5]; 30 μmol/ml): (8) % | OH radical formation ([5]; 30 μmol/ml): 76.4 ± 3.8 nmol MDA/hr | % inhibition of OH radical formation ([5]; 40 μmol/ml): (11) % | OH radical formation ([5]; 40 μmol/ml): 74.3 ± 6.3 nmol MDA/hr | % inhibition of OH radical formation ([5]; 50 μmol/ml): (13) % | OH radical formation ([5]; 50 μmol/ml): 72.4 ± 8.0 nmol MDA/hr
